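Here, GI50 denotes the concentration required for 50% inhibition of growth. At the TGI there is no net growth.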
Key:
Assay in all cases: NCI anticancer screen, dose series, 384-well format
MALME-3M melanoma = test system: MALME-3M melanoma
OVCAR-3 ovarian = test system: OVCAR-3 ovarian
MDA-MB-435 melanoma = test system: MDA-MB-435 melanoma
BT-549 breast = test system: BT-549 breast
MDA-MB-231 breast = test system: MDA-MB-231 breast
HT29 colon = test system: HT29 colon
SNB-75 CNS = test system: SNB-75 CNS
A498 renal = test system: A498 renal
RXF 393 renal = test system: RXF 393 renal
SF-295 CNS = test system: SF-295 CNS
MDA-MB-468 breast = test system: MDA-MB-468 breast
786-0 renal = test system: 786-0 renal
OVCAR-8 ovarian = test system: OVCAR-8 ovarian
HOP-62 NSCLC = test system: HOP-62 NSCLC
PC-3 prostate = test system: PC-3 prostate
M14 melanoma = test system: M14 melanoma
NCI-H522 lung = test system: NCI-H522 lung
UACC-62 melanoma = test system: UACC-62 melanoma
COLO 205 colon = test system: COLO 205 colon
OVCAR-4 ovarian = test system: OVCAR-4 ovarian
RPMI-8226 leukemia = test system: RPMI-8226 leukemia
NCI-H460 NSCLC = test system: NCI-H460 NSCLC
HOP-92 NSCLC = test system: HOP-92 NSCLC
NCI-H322M lung = test system: NCI-H322M lung
T-47D breast = test system: T-47D breast
HCC-2998 colon = test system: HCC-2998 colon
SK-MEL-28 melanoma = test system: SK-MEL-28 melanoma
HS 578T breast = test system: HS 578T breast
SK-OV-3 ovarian = test system: SK-OV-3 ovarian
SN12C renal = test system: SN12C renal
TK-10 renal = test system: TK-10 renal
LOX IMVI melanoma = test system: LOX IMVI melanoma
HCT-116 colon = test system: HCT-116 colon
SF-539 CNS = test system: SF-539 CNS
ACHN renal = test system: ACHN renal
A549 NSCLC = test system: A549 NSCLC
SK-MEL-5 melanoma = test system: SK-MEL-5 melanoma
NCI/ADR-RES ovarian = test system: NCI/ADR-RES ovarian
MOLT-4 leukemia = test system: MOLT-4 leukemia
NCI-H23 lung = test system: NCI-H23 lung
U251 glioblastoma = test system: U251 glioblastoma
CCRF-CEM leukemia = test system: CCRF-CEM leukemia
HL-60(TB) leukemia = test system: HL-60(TB) leukemia
SW-620 colon = test system: SW-620 colon
KM12 colon = test system: KM12 colon
MCF7 breast = test system: MCF7 breast
IGROV1 ovarian = test system: IGROV1 ovarian
EKVX NSCLC = test system: EKVX NSCLC
SF-268 CNS = test system: SF-268 CNS
SR leukemia = test system: SR leukemia
NCI-H226 lung = test system: NCI-H226 lung
HCT-15 colon = test system: HCT-15 colon
CAKI-1 renal = test system: CAKI-1 renal
SK-MEL-2 melanoma = test system: SK-MEL-2 melanoma
DU-145 prostate = test system: DU-145 prostate
SNB-19 CNS = test system: SNB-19 CNS
K-562 leukemia = test system: K-562 leukemia
UACC-257 melanoma = test system: UACC-257 melanoma
OVCAR-5 ovarian = test system: OVCAR-5 ovarian

Oc1ccc(-c2nc(-c3ccc(F)cc3)c(-c3ccncc3)[nH]2)cc1
GI50 (MALME-3M melanoma): 3.34 µM
TGI (MALME-3M melanoma): 9.1 µM
GI50 (OVCAR-3 ovarian): 14.9 µM
TGI (OVCAR-3 ovarian): 29 µM
GI50 (MDA-MB-435 melanoma): 10.4 µM
TGI (MDA-MB-435 melanoma): 44 µM
GI50 (BT-549 breast): 19.2 µM
TGI (BT-549 breast): > 57.2 µM
GI50 (MDA-MB-231 breast): 20.7 µM
TGI (MDA-MB-231 breast): > 60 µM
GI50 (HT29 colon): 5.85 µM
TGI (HT29 colon): 20.9 µM
GI50 (SNB-75 CNS): 32.9 µM
TGI (SNB-75 CNS): > 85.4 µM
GI50 (A498 renal): 16.4 µM
TGI (A498 renal): 46.2 µM
GI50 (RXF 393 renal): 15 µM
TGI (RXF 393 renal): 31.5 µM
GI50 (SF-295 CNS): 17.5 µM
TGI (SF-295 CNS): 33.1 µM
GI50 (MDA-MB-468 breast): 4.59 µM
TGI (MDA-MB-468 breast): 19.3 µM
GI50 ([…]-0 renal): 12.9 µM
TGI (786-0 renal): 26.6 µM
GI50 (OVCAR-8 ovarian): 22.7 µM
TGI (OVCAR-8 ovarian): > 100 µM
GI50 (HOP-62 NSCLC): 19 µM
TGI (HOP-62 NSCLC): 42.9 µM
GI50 (PC-3 prostate): 18.7 µM
TGI (PC-3 prostate): > 57 µM
GI50 (M14 melanoma): 5.7 µM
TGI (M14 melanoma): 21 µM
GI50 (NCI-H522 lung): 7.46 µM
TGI (NCI-H522 lung): 22.2 µM
GI50 (UACC-62 melanoma): 3.62 µM
TGI (UACC-62 melanoma): 16.8 µM
GI50 (COLO 205 colon): 8.47 µM
TGI (COLO 205 colon): 22.1 µM
GI50 (OVCAR-4 ovarian): 47.5 µM
TGI (OVCAR-4 ovarian): > 100 µM
GI50 (RPMI-8226 leukemia): 5.38 µM
TGI (RPMI-8226 leukemia): 13.1 µM
GI50 (NCI-H460 NSCLC): 15.3 µM
TGI (NCI-H460 NSCLC): 28.9 µM
GI50 (HOP-92 NSCLC): 15.9 µM
TGI (HOP-92 NSCLC): 60.4 µM
GI50 (NCI-H322M lung): 21.3 µM
TGI (NCI-H322M lung): 52.5 µM
GI50 (T-47D breast): 12.5 µM
TGI (T-47D breast): 27.1 µM
GI50 (HCC-2998 colon): 23.9 µM
TGI (HCC-2998 colon): 40.8 µM
GI50 (SK-MEL-28 melanoma): 7.27 µM
TGI (SK-MEL-28 melanoma): 22.4 µM
GI50 (HS 578T breast): 15.7 µM
TGI (HS 578T breast): 31.3 µM
GI50 (SK-OV-3 ovarian): 13 µM
TGI (SK-OV-3 ovarian): 32.7 µM
GI50 (SN12C renal): 44.3 µM
TGI (SN12C renal): > 100 µM
GI50 (TK-10 renal): 18.8 µM
TGI (TK-10 renal): 57.3 µM
GI50 (LOX IMVI melanoma): 17.6 µM
TGI (LOX IMVI melanoma): 31.8 µM
GI50 (HCT-116 colon): 20 µM
TGI (HCT-116 colon): > 53.3 µM
GI50 (SF-539 CNS): 17.6 µM
TGI (SF-539 CNS): 35.8 µM
GI50 (ACHN renal): 12.2 µM
TGI (ACHN renal): 31.5 µM
GI50 (A549 NSCLC): 19.2 µM
TGI (A549 NSCLC): > 52.1 µM
GI50 (SK-MEL-5 melanoma): 10.6 µM
TGI (SK-MEL-5 melanoma): 22.5 µM
GI50 (NCI/ADR-RES ovarian): 20.2 µM
TGI (NCI/ADR-RES ovarian): 46.6 µM
GI50 (MOLT-4 leukemia): 11.9 µM
TGI (MOLT-4 leukemia): 24.3 µM
GI50 (NCI-H23 lung): 29.2 µM
TGI (NCI-H23 lung): 85.4 µM
GI50 (U251 glioblastoma): 18.6 µM
TGI (U251 glioblastoma): 48.3 µM
GI50 (CCRF-CEM leukemia): 10.1 µM
TGI (CCRF-CEM leukemia): 21.8 µM
GI50 (HL-60(TB) leukemia): 14.6 µM
TGI (HL-60(TB) leukemia): 27.7 µM
GI50 (SW-620 colon): 23.5 µM
TGI (SW-620 colon): 38.4 µM
GI50 (KM12 colon): 20.2 µM
TGI (KM12 colon): 37.2 µM
GI50 (MCF7 breast): 18.8 µM
TGI (MCF7 breast): > 100 µM
GI50 (IGROV1 ovarian): 1.62 µM
TGI (IGROV1 ovarian): 20.9 µM
GI50 (EKVX NSCLC): 14.7 µM
TGI (EKVX NSCLC): 33.2 µM
GI50 (SF-268 CNS): 18.3 µM
TGI (SF-268 CNS): 46.2 µM
GI50 (SR leukemia): 10.3 µM
TGI (SR leukemia): 22.1 µM
GI50 (NCI-H226 lung): 18.7 µM
TGI (NCI-H226 lung): 39.4 µM
GI50 (HCT-15 colon): 15.4 µM
TGI (HCT-15 colon): 32.9 µM
GI50 (CAKI-1 renal): 7.98 µM
TGI (CAKI-1 renal): > 48.4 µM
GI50 (SK-MEL-2 melanoma): 16.3 µM
TGI (SK-MEL-2 melanoma): 30 µM
GI50 (DU-145 prostate): 14.8 µM
TGI (DU-145 prostate): 31.2 µM
GI50 (SNB-19 CNS): 41.7 µM
TGI (SNB-19 CNS): > 100 µM
GI50 (K-562 leukemia): 10.5 µM
TGI (K-562 leukemia): 24.2 µM
GI50 (UACC-257 melanoma): 21.9 µM
TGI (UACC-257 melanoma): > 54 µM
GI50 (OVCAR-5 ovarian): 23.6 µM
TGI (OVCAR-5 ovarian): 47 µM

— PubChem BioAssay (NCI)
